# Laboratory results from patent publication US20170265465A1, “BIORATIONAL TREATMENT PRODUCTS AND METHODS OF USING SAME” (Board of Trustees of Michigan State University, priority 2014, published 2017).
# Experiments:
# Assay type in all cases: in vivo
# [1] = test system: creeping bentgrass (Argostis palustris) fairway; assay: Example 2, 2013 urea (46-0-0)/canola oil study: turfgrass quality rating; conditions: scale 1-9, 7 = acceptable
# Excerpt: This study was established on an irrigated, creeping bentgrass (Argostis palustris) fairway (˜0.5 in (1.3 cm) height of cut) on the same research center as in Example 1. The study was established in four replications of a randomized block design, using 2 ft.×10.5 ft. (0.6 m×3.2 m) plots with 6 in. (0.15 m) alleys. Prior to the study, diseases were controlled with as-needed fungicide applications. Fertility was maintained at approximately 0.1 lb. N/1000 ft^2 (0.49 g/m^2)/mo. […] Turfgrass quality ratings and biomass ratings were performed as described in Example 1. Clippings were also collected as described in Example 1.
# Treatments of sprayable urea (46-0-0) (The Andersons, Inc.) hereinafter “Urea (46-0-0)” and Civitas/Harmonizer fungicide/turf pigment (Suncor Energy Corp.) were applied initially on Aug. 22, 2013.
# [2] = test system: creeping bentgrass (Argostis palustris) fairway; assay: Example 2: visual growth (biomass) rating; conditions: scale 1 = least, 9 = most increase
# [3] = test system: creeping bentgrass (Argostis palustris) fairway; assay: Example 2: clippings (biomass) dry weight
# Protocol: Objective biomass ratings were also performed based on an increase in dried weight of clippings. Clippings were collected over pre-measured plot areas in each treatment replicate using a Toro® brand walk-behind greens mower Model […] 8000 at the height described in this Example and dried in a drying oven (60° C.) for approximately 48 hours before being weighed. […] Prior to the study, diseases were controlled with as-needed fungicide applications. Fertility was maintained at approximately 0.1 lb.
# [4] = test system: winter-dormant creeping bentgrass putting green (Agrostis palustris); assay: Example 4, 2013 spring green-up/winter dormancy break study: turfgrass quality rating; conditions: May 11, 2013; scale 1-9, 7 = acceptable; per 1000 ft^2, as far as in the treatment: canola oil concentrate (94.7%:4.7%:0.8% oil:Foursome:Silwet L-77) 8 fl. oz., Urea 0.2 lb. N
# Excerpt: This study was established on a brown, desiccated, winter-dormant creeping bentgrass putting green (Agrostis palustris) (˜0.15 in ([…]) height of cut) on the same research center as in previous examples. The study was established in four replications of a randomized block design, using 2 ft.×7.5 ft. (0.6 m×2.3 m) plots with 6 in. (0.15 m) alleys. Treatments were applied with the backpack sprayer described in Example 1 operating at 40 PSI (2.8 kg/cm^2) with a 96 GPA (898 L/ha) spray volume. Treatments were applied in this “green-up”/winter dormancy break study on a 21-day schedule on Apr. 5, 2013, and Apr. 27, 2013 Turfgrass quality ratings in this example included observations of increased density, increased growth, and degree of color intensity change. These observations were taken on May 11, 2013, and were based on a visual 1 (worst) −9 (best) rating scale, with a 7-rating representing acceptable turfgrass “quality.”
# irrigated putting green [5] = assay: Example 15, 2016 bio-adjuvant/fertility study: visual turfgrass quality rating; conditions: scale 1-9 (1 = worst, 9 = best, 7 = acceptable)
# Protocol: (§1) The study was established in four replications of a randomized block design utilizing 2 ft.×21 ft. plots with 6 inch alleys. Treatments were initially applied on Sep. 13, 2016 with the same sprayer and under the same conditions described in Example 1. Turfgrass quality ratings and biomass ratings were performed as described in Example 1. The plots were trimmed on September 19, October 8, and Oct. 24, 2016 and clippings were also collected as described in Example 1.
# (§2) Treatments were re-applied on Sep. 28, 2016 and Oct. 11, 2016. Turfgrass visual growth and quality ratings were taken periodically, along with turfgrass color ratings as taken with a Spectrum Technologies, Inc. TCM 500 NDVI Color Meter and a Spectrum Technologies, Inc. FieldScout CM 1000 Chlorophyll Meter. The study was irrigated as needed to prevent wilt. No background fertility was applied to the study area. The area was sprayed with 26GT fungicide on Sep. 27, 2016 to control dollar spot disease.
# irrigated putting green [6] = assay: Example 15: turfgrass color rating, TCM 500 NDVI Color Meter; conditions: Sept. 16, TCM 500 NDVI Turf Color Meter
# Protocol: as §1, §2
# irrigated putting green [7] = assay: Example 15: dew rating; conditions: Sept. 15, visual scale 1 = least
# Protocol: as §1, §2
# Dew reduction (Table 25) is directly related to the amount of bio-adjuvant applied, specifically, the amount of canola oil in the treatment. Dew reduction is relevant to disease control because it can translate into reduced foliar disease pressure, and reduced frost accumulation. […] 15, 2016.
# irrigated putting green [8] = assay: Example 15: dried clipping weights; conditions: application interval 14 days; for All Clippings (Dried), Mean Total Clippings: Sept 19-Oct. 24
# Protocol: Some biomass ratings were subjective visual estimations based on appearance of a combination of increased biomass and increased density on a 1 (least increase) to 9 (most increase) scale. Objective biomass ratings were also performed based on an increase in dried weight of clippings. Clippings were collected over pre-measured plot areas in each treatment replicate using a Toro® brand walk-behind greens mower Model Greensmaster 8000 at the height described in this Example and dried in a drying oven (60° C.) for approximately 48 hours before being weighed.
# as §1, §2
# [9] = Sep. 3, 2013, one application, per 1000 ft^2, as far as in the treatment: Urea 0.1 lb. N, Canola Oil Concentrate/Bio-Adjuvant 10 fl. oz., Civitas 8 + Harmonizer 0.5 fl. oz.
# [10] = Sep. 3, 2013, Urea 0.2 lb. N/1000 ft^2, Canola Oil 10 fl. oz. or Civitas 8 + Harmonizer 0.5 fl. oz. where in the treatment
# [11] = Sep. 3, 2013, Urea 0.3 lb. N/1000 ft^2, Canola Oil Bio-Adjuvant 10 fl. oz. or Civitas 8 + Harmonizer 0.5 fl. oz. where in the treatment
# [12] = Trt. 4, 0.1 lb N/1000 sq. ft. /14 days
# [13] = Trt. 5, 0.05 lb N/1000 sq. ft. /14 days
structure (smiles),measurement,setting,value
"NC(N)=O [Urea (46-0-0), urea]",Turfgrass Quality,[1]; [9],6.5 ef
same,Turfgrass Quality,[1]; [10],6.75 de
same,Turfgrass Quality,[1]; [11],7.5 bc
same,Visual Growth (Biomass),[2]; [9],3 ef
same,Visual Growth (Biomass),[2]; [10],3.75 de
same,Visual Growth (Biomass),[2]; [11],3.75 de
same,Clippings (Biomass) Dry wt (g),[3]; [9],7.21 f g
same,Clippings (Biomass) Dry wt (g),[3]; [10],7.87 f g
same,Clippings (Biomass) Dry wt (g),[3]; [11],9.77 bcd g
same,Turfgrass Quality,[4],6.0 c
same,"Visual Turfgrass Quality, MEAN","irrigated putting green [5]; Trt. 4, 0.1 lb N/1000 sq. ft. /14 days, Oct. 1 (3 DAT)",7.0
same,"Visual Turfgrass Quality, MEAN","irrigated putting green [5]; Trt. 4, 0.1 lb N/1000 sq. ft. /14 days, Oct. 6 (8 DAT)",7.3
same,"Visual Turfgrass Quality, MEAN","irrigated putting green [5]; Trt. 4, 0.1 lb N/1000 sq. ft. /14 days, Sept. 19 (6 DAT)",7.3
same,"Visual Turfgrass Quality, MEAN","irrigated putting green [5]; Trt. 5, 0.05 lb N/1000 sq. ft. /14 days, Oct. 1 (3 DAT)",7.0
same,"Visual Turfgrass Quality, MEAN","irrigated putting green [5]; Trt. 5, 0.05 lb N/1000 sq. ft. /14 days, Oct. 6 (8 DAT)",6.8
same,"Visual Turfgrass Quality, MEAN","irrigated putting green [5]; Trt. 5, 0.05 lb N/1000 sq. ft. /14 days, Sept. 19 (6 DAT)",6.8
same,"Turfgrass Color (Greenness), MEAN, NDVI reading",irrigated putting green [6]; [12],0.761
same,"Turfgrass Color (Greenness), MEAN, NDVI reading",irrigated putting green [6]; [13],0.755
same,"Dew rating, Mean",irrigated putting green [7]; [12],5.0
same,"Dew rating, Mean",irrigated putting green [7]; [13],5.0
same,"Dried Clipping Weight, Mean","irrigated putting green [8]; Trt. 4, 0.1 lb N/1000 sq. ft., Oct. 8",62.5 gms
same,"Dried Clipping Weight, Mean","irrigated putting green [8]; Trt. 4, 0.1 lb N/1000 sq. ft., Oct. 24",55.8 gms
same,"All Clippings (Dried), Mean Total Clippings","irrigated putting green [8]; Trt. 4, 0.1 lb N/1000 sq. ft.",189.8 gms
same,"Dried Clipping Weight, Mean","irrigated putting green [8]; Trt. 4, 0.1 lb N/1000 sq. ft., Sept. 19",71.5 gms
same,"Dried Clipping Weight, Mean","irrigated putting green [8]; Trt. 5, 0.05 lb N/1000 sq. ft., Oct. 8",59.5 gms
same,"Dried Clipping Weight, Mean","irrigated putting green [8]; Trt. 5, 0.05 lb N/1000 sq. ft., Oct. 24",46.5 gms
same,"All Clippings (Dried), Mean Total Clippings","irrigated putting green [8]; Trt. 5, 0.05 lb N/1000 sq. ft.",177.3 gms
same,"Dried Clipping Weight, Mean","irrigated putting green [8]; Trt. 5, 0.05 lb N/1000 sq. ft., Sept. 19",71.3 gms
